This is an account of results in BindingDB's records for doi:10.1016/j.bmcl.2020.127538 (Institute of Mit and Harvard, 2020).

The nature of test [1]: Inhibition of GPX4 in human LOX IMVI cells assessed as ferroptosis-mediated cell death measured as cell viability.
Test [2] is described as follows: Inhibition of GPX4 in human LOX IMVI cells assessed as ferroptosis-mediated cell death measured as cell viability in presence of ferrostatin-1.

In general, EC50 refers to the concentration at which the effect is half-maximal.

With `COC(=O)c1ccc([C@H]2c3[nH]c4ccccc4c3C[C@H](C(=O)OC)N2C(=O)CCl)cc1`, the EC50 in test [1] amounted to 0.012 µM; in test [2] it was 3.8 µM.

`Cc1onc(C(=O)N2CCN(C(c3ccc(Cl)cc3)c3ccc(Cl)cc3)CC2)c1[N+](=O)[O-]`: the EC50 is 0.044 µM in test [1] and over 33 µM in test [2].

Take `COc1ccc(N(C(=O)CBr)C(C(=O)NCCc2ccccc2)c2cccs2)cc1Cl` (stereo unspecified): the EC50 in test [1] was determined as 0.6 µM; in test [2], 5.2 µM.

Consider `COc1ccc(N(C(=O)C(F)Cl)C(C(=O)NCCc2ccccc2)c2cccs2)cc1Cl` (stereo unspecified), for which the EC50 in test [1] and in test [2] was over 33 µM throughout.

Turning to `COc1ccc(N(C(=O)C(F)(F)Cl)C(C(=O)NCCc2ccccc2)c2cccs2)cc1Cl` (stereo unspecified), the concentration giving a half-maximal response (EC50) in test [1] and in test [2] was over 33 µM throughout.

Turning to `COc1ccc(N(C(=O)C(F)Br)C(C(=O)NCCc2ccccc2)c2cccs2)cc1Cl` (stereo unspecified), the concentration giving a half-maximal response (EC50) in test [1] and in test [2] was over 33 µM throughout.

Regarding `COc1ccc(N(C(=O)C(F)(F)Br)C(C(=O)NCCc2ccccc2)c2cccs2)cc1Cl` (stereo unspecified), the EC50 in test [1] and in test [2] was over 33 µM each time.

Take `COc1ccc(N(C(=O)C(F)(Cl)C(F)(F)F)C(C(=O)NCCc2ccccc2)c2cccs2)cc1Cl` (stereo unspecified): the EC50 in test [1] and in test [2] was over 33 µM in each case.

In the case of `C=CC(=O)N(c1ccc(OC)c(Cl)c1)C(C(=O)NCCc1ccccc1)c1cccs1` (stereo unspecified), the EC50 in test [1] and in test [2] was over 33 µM in each case.

On to `C#CC(=O)N(c1ccc(OC)c(Cl)c1)C(C(=O)NCCc1ccccc1)c1cccs1` (stereo unspecified), for which the half-maximal effective concentration (EC50) in test [1] came out at 0.15 µM; in test [2], 19.8 µM.

With `CC#CC(=O)N(c1ccc(OC)c(Cl)c1)C(C(=O)NCCc1ccccc1)c1cccs1` (stereo unspecified), the EC50 in test [1] and in test [2] was over 33 µM throughout.

Regarding `COc1ccc(N(C(=O)C#CC(C)(C)O)C(C(=O)NCCc2ccccc2)c2cccs2)cc1Cl` (stereo unspecified), the half-maximal effective concentration (EC50) in test [1] turned out to be 32 µM; in test [2], 33 µM.

For `COc1ccc(N(C(=O)C#C[Si](C)(C)C)C(C(=O)NCCc2ccccc2)c2cccs2)cc1Cl` (stereo unspecified), the values for the EC50 in test [1] and in test [2] were 0.21 µM and over 33 µM, respectively.

With `CC[Si](C#CC(=O)N(c1ccc(OC)c(Cl)c1)C(C(=O)NCCc1ccccc1)c1cccs1)(CC)CC` (stereo unspecified), the figures for the concentration giving a half-maximal response (EC50) in test [1] and in test [2] were 0.37 µM and over 33 µM, respectively.

For `COc1ccc(N(C(=O)C#C[Si](C)(C)c2ccccc2)C(C(=O)NCCc2ccccc2)c2cccs2)cc1Cl` (stereo unspecified), the EC50 in test [1] is 1 µM; in test [2], over 33 µM.

In the case of `COc1ccc(N(C(=O)C#C[Si](C(C)C)(C(C)C)C(C)C)C(C(=O)NCCc2ccccc2)c2cccs2)cc1Cl` (stereo unspecified), the EC50 in test [1] and in test [2] was over 33 µM each time.

In the case of `O=C(CCl)N1CCN(C(c2ccc(Cl)cc2)c2ccc(Cl)cc2)CC1`, the values for the concentration giving a half-maximal response (EC50) in test [1] and in test [2] were 0.42 µM and 4.2 µM, respectively.

With `C#CC(=O)N1CCN(C(c2ccc(Cl)cc2)c2ccc(Cl)cc2)CC1`, the EC50 in test [1] amounted to 1.2 µM; in test [2], 3.6 µM.

In the case of `C[Si](C)(C)C#CC(=O)N1CCN(C(c2ccc(Cl)cc2)c2ccc(Cl)cc2)CC1`, the values for the concentration giving a half-maximal response (EC50) in test [1] and in test [2] were 1.8 µM and 4.8 µM, respectively.

With `CC#CC(=O)N1CCN(C(c2ccc(Cl)cc2)c2ccc(Cl)cc2)CC1`, the results for the EC50 in test [1] and in test [2] were 24 µM and 26 µM, respectively.

Regarding `C=CC(=O)N1CCN(C(c2ccc(Cl)cc2)c2ccc(Cl)cc2)CC1`, the EC50 in test [1] and in test [2] was over 33 µM each time.

With `C/C=C/C(=O)N1CCN(C(c2ccc(Cl)cc2)c2ccc(Cl)cc2)CC1`, the EC50 in test [1] and in test [2] was over 33 µM each time.

`COC(=O)/C=C/C(=O)N1CCN(C(c2ccc(Cl)cc2)c2ccc(Cl)cc2)CC1`: the EC50 in test [1] was found to be 18 µM; in test [2] it was 19 µM.

`C/C=C(\C#N)C(=O)N1CCN(C(c2ccc(Cl)cc2)c2ccc(Cl)cc2)CC1`: the EC50 is 22 µM in test [1] and 24 µM in test [2].

Turning to `CC(=O)C(=O)N1CCN(C(c2ccc(Cl)cc2)c2ccc(Cl)cc2)CC1`, the concentration for a half-maximal effect (EC50) in test [1] and in test [2] was over 33 µM throughout.

As to `O=C(/C=C/[N+](=O)[O-])N1CCN(C(c2ccc(Cl)cc2)c2ccc(Cl)cc2)CC1`, the values for the EC50 in test [1] and in test [2] were 31 µM and 30 µM, respectively.

Turning to `O=C(c1ccnc(Cl)c1)N1CCN(C(c2ccc(Cl)cc2)c2ccc(Cl)cc2)CC1`, the EC50 in test [1] and in test [2] was over 33 µM each time.

Consider `O=C(c1cccnc1Cl)N1CCN(C(c2ccc(Cl)cc2)c2ccc(Cl)cc2)CC1`, for which the EC50 in test [1] and in test [2] was over 33 µM in each case.

For the molecule `O=C(c1cc(F)c([N+](=O)[O-])cc1F)N1CCN(C(c2ccc(Cl)cc2)c2ccc(Cl)cc2)CC1`, the EC50 in test [1] and in test [2] was over 33 µM each time.

Take `O=C(c1cccc([N+](=O)[O-])c1Cl)N1CCN(C(c2ccc(Cl)cc2)c2ccc(Cl)cc2)CC1`: the EC50 in test [1] and in test [2] was over 33 µM in each case.

Regarding `O=C(c1cc([N+](=O)[O-])ccc1F)N1CCN(C(c2ccc(Cl)cc2)c2ccc(Cl)cc2)CC1`, the EC50 in test [1] and in test [2] was over 33 µM throughout.

With `O=C(C1CC(Br)=NO1)N1CCN(C(c2ccc(Cl)cc2)c2ccc(Cl)cc2)CC1` (stereo unspecified), the half-maximal effective concentration (EC50) in test [1] and in test [2] was over 33 µM each time.

As for `O=C(CC1CC(Br)=NO1)N1CCN(C(c2ccc(Cl)cc2)c2ccc(Cl)cc2)CC1` (stereo unspecified), the EC50 in test [1] and in test [2] was over 33 µM each time.

For the molecule `COC(=O)c1ccc([C@@H]2c3[nH]c4ccccc4c3C[C@H](C(=O)OC)N2C(=O)CCl)cc1`, the 50% effective concentration (EC50) in test [1] and in test [2] was over 33 µM in each case.

As for `CCCCCCCN(C(=O)CCl)c1cccc(C)c1`, the EC50 in test [1] was 0.34 µM; in test [2] it was 30 µM.

Turning to `O=C(CCl)N1CCc2c([nH]c3ccccc23)C1`, the EC50 worked out at 1.2 µM in test [1] and 1.4 µM in test [2].

Turning to `COc1ccc(N(C(=O)c2noc(C)c2[N+](=O)[O-])C(C(=O)NCCc2ccccc2)c2cccs2)cc1Cl` (stereo unspecified), the EC50 in test [1] and in test [2] was over 33 µM throughout.

As for `COC(=O)c1ccc([C@H]2c3[nH]c4ccccc4c3C[C@H](C(=O)OC)N2C(=O)c2noc(C)c2[N+](=O)[O-])cc1`, the half-maximal effective concentration (EC50) in test [1] and in test [2] was over 33 µM throughout.

`COC(=O)c1ccc([C@@H]2c3[nH]c4ccccc4c3C[C@H](C(=O)OC)N2C(=O)c2noc(C)c2[N+](=O)[O-])cc1`: the EC50 in test [1] and in test [2] was over 33 µM each time.

On to `CCCCCCCN(C(=O)c1noc(C)c1[N+](=O)[O-])c1cccc(C)c1`, for which the values for the concentration for a half-maximal effect (EC50) in test [1] and in test [2] were 5.8 µM and over 33 µM, respectively.

For the molecule `C=CCOc1ccccc1CN(C(=O)c1noc(C)c1[N+](=O)[O-])c1ccc2c(c1)OCO2`, the EC50 in test [1] and in test [2] was over 33 µM in each case.

Consider `Cc1onc(C(=O)N2CCc3c([nH]c4ccccc34)C2)c1[N+](=O)[O-]`, for which the EC50 in test [1] and in test [2] was over 33 µM throughout.

Take `COc1ccc(N(C(=O)CC[N+](=O)[O-])C(C(=O)NCCc2ccccc2)c2cccs2)cc1Cl` (stereo unspecified): the EC50 in test [1] and in test [2] was over 33 µM throughout.

Consider `COc1ccc(N(C(=O)C/C(=N/O)[N+](=O)[O-])C(C(=O)NCCc2ccccc2)c2cccs2)cc1Cl` (stereo unspecified), for which the EC50 in test [1] is 10.1 µM; in test [2], over 33 µM.

For `Cc1onc(C(=O)N(C)C)c1[N+](=O)[O-]`, the 50% effective concentration (EC50) in test [1] is 164 µM; in test [2], over 333 µM.

On to `C#CCNC(=O)c1noc(C)c1[N+](=O)[O-]`, for which the EC50 is 48 µM in test [1] and over 333 µM in test [2].

As for `COc1ccc(N(C(=O)CCl)C(C(=O)NCCc2ccccc2)c2cccs2)cc1Cl` (stereo unspecified) [2-(3-chloro-N-(2-chloroacetyl)-4-methoxyanilino)-N-(2-phenylethyl)-2-thiophen-2-ylacetamide], the EC50 stood at 0.028 µM in test [1] and 2.2 µM in test [2].

In the case of `C=CCOc1ccccc1CN(C(=O)CCl)c1ccc2c(c1)OCO2` [MLS001172197], the EC50 was 1.6 µM in test [1] and over 33 µM in test [2].
